Biological target: C-Raf FL (full length CRAF with Y340E and Y341E activating mutations, co-expressed with h14-3-3 zeta) (Homo sapiens (Human), UniProt P04049, Y340E/Y341E)
Assay: In vitro Raf activity determination, AlphaScreen p-MEK readout, c-Raf (C-Raf FL)
Format: biochemical
Details: c-Raf approximately 4 nM, ATP 1 μM, pre-incubation 60 minutes, reaction 1 hour
Excerpt: Sf9 cells co-expressing both proteins were lysed and subjected to immobilized nickel chromatography and eluted with Imidazole. A second column (StrepII binding column) was used and eluted with desthiobiotin. Protein Tags were removed using Prescission enzyme and the protein was further purified using a flowthrough step to remove tags.
C-Raf TR refers to a truncated C-Raf protein, a Δ1-324 deletion mutant. C-Raf FL refers to the full-length C-Raf protein.
Full length MEK1 with an inactivating K97R ATP binding site mutation is utilized as a RAF substrate. The MEK1 cDNA was subcloned with an N-terminal (his)6 tag into a vector for E. Coli expression. The MEK1 substrate was purified from E. Coli lysate by nickel affinity chromatography followed by anion exchange. The final MEK1 preparation was biotinylated (Pierce EZ-Link Sulfo-NHS-LC-Biotin) and concentrated.
Assay Materials: Assay buffer is 50 mM Tris, pH 7.5, 15 mM MgCl2, 0.01% Bovine Serum Albumin (BSA) and 1 mM dithiothreitol (DTT); Stop buffer is 60 mM ethylenediaminetetraacetic acid (EDTA) and 0.01% Tween® 20; b-Raf (V600E), active; biotinylated Mek, kinase dead; Alpha Screen detection kit (available from PerkinElmer™, #6760617R); Anti phospho-MEK1/2 (available from Cell Signaling Technology, Inc. #9121); 384 well low volume assay plates (White Greiner® plates).
Assay conditions: b-Raf (V600E) approximately 4 pM; c-Raf approximately 4 nM; biotinylated Mek, kinase dead approximately 10 nM; ATP 10 μM for BRAF (V600E) and 1 μM for CRAF; Pre-incubation time with compounds 60 minutes at room temperature; Reaction time 1 or 3 hours at room temperature.
Assay protocol: Raf and biotinylated Mek (kinase dead) were combined at 2× final concentrations in assay buffer (50 mM Tris, pH 7.5, 15 mM MgCl2, 0.01% BSA and 1 mM DTT) and dispensed […] per well in assay plates (Greiner white 384 well assay plates #781207) containing […] of 40× of a Raf kinase inhibitor test compound diluted in 100% DMSO. The plate was incubated for 60 minutes at room temperature. The Raf kinase activity reaction was started by the addition of […] per well of 2×ATP diluted in assay buffer. After 3 hours (b-Raf(V600E)) or 1 hour (c-Raf). The reactions were stopped and the phosphorylated product was measured using a rabbit anti-p-MEK (Cell Signaling, #9121) antibody and the Alpha Screen IgG (ProteinA) detection Kit (PerkinElmer #6760617R), by the addition of […] to the well of a mixture of the antibody (1:2000 dilution) and detection beads (1:2000 dilution of both beads) in Stop/bead buffer (25 mM EDTA, 50 mM Tris, pH 7.5, 0.01% Tween20). The additions were carried out under dark conditions to protect the detection beads from light. A lid was placed on top of the plate and incubated for 1 hour at room temperature, after which the luminescence was read on a PerkinElmer Envision instrument.

Chain of C-Raf FL (full length CRAF with Y340E and Y341E activating mutations, co-expressed with h14-3-3 zeta) (P04049 whole entry Y340E/Y341E): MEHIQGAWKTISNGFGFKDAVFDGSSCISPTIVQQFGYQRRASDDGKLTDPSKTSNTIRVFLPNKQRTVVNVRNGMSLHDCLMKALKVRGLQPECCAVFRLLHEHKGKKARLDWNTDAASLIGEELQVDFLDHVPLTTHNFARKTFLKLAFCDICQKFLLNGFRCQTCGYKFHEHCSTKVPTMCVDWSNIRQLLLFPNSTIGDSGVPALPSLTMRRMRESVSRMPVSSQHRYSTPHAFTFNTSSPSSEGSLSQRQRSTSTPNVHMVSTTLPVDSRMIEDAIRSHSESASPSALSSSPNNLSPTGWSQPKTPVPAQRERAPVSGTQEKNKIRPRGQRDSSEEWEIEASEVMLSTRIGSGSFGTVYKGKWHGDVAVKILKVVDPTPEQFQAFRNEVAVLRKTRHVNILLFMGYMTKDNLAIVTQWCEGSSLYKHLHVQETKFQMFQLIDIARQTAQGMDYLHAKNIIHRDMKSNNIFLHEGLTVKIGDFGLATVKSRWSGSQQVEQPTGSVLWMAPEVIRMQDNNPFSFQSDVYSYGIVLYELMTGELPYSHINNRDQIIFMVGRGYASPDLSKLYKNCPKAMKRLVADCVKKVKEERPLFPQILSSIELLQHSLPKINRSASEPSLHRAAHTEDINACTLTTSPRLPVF
Chain of C-Raf FL (full length CRAF with Y340E and Y341E activating mutations, co-expressed with h14-3-3 zeta) (P63104 whole entry partner): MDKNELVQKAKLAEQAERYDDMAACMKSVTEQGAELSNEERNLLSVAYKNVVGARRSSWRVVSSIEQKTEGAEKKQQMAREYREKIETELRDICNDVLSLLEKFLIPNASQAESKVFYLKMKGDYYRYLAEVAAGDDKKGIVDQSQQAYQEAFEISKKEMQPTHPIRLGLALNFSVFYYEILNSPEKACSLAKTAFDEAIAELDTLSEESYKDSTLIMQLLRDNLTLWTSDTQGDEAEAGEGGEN

| SMILES | IC50 [nM] |
| --- | --- |
| CCN1Cc2nncn2-c2cc(-c3cc(NC(=O)c4ccnc(C(F)(F)F)c4)ccc3C)cnc2C1=O [Example 241, N-(3-(5-ethyl-6-oxo-5,6-dihydro-4H-pyrido[2,3-f][1,2,4]-triazolo[4,3-a][1,4]diazepin-9-yl)-4-methylphenyl)-2-(trifluoromethyl) isonicotinamide] | 9.5 |
| Cc1ccc(NC(=O)c2ccnc(C(F)(F)F)c2)cc1-c1cnc2c(c1)C1(C)CCOCCC1C(=O)N2CCO (single isomer, unassigned) [Example 356, N-(3-((5a,11b-trans)-7-(2-hydroxyethyl)-11b-methyl-6-oxo-1,2,4,5,5a,6,7,11b-octahydrooxepino[4,5-c][1,8]naphthyridin-10-yl)-4-methylphenyl)-2-(trifluoromethyl)isonicotinamide] | 0.1 |
| Cc1ccc(NC(=O)c2ccnc(C(F)(F)F)c2)cc1-c1cnc2c(c1)N1CCOC[C@H]1C(C)(C)[C@H]2N [Example 527] | 0.9 |
| Cc1ccc(NC(=O)c2ccnc(C(F)(F)F)c2)cc1-c1cnc2c(c1)N1CCOC[C@H]1[C@](C)(C#N)C2 [Example 377, N-(3-((4aR,5R)-5-cyano-5-methyl-1,2,4,4a,5,6-hexahydro-[1,4]oxazino[4,3-a][1,5]naphthyridin-9-yl)-4-methylphenyl)-2-(trifluoromethyl)isonicotinamide] | 0.9 |
| Cc1ccc(NC(=O)c2ccnc(C(C)(F)F)c2)cc1-c1cc2c(nn1)OC(C)(C)[C@@H]1COCCN21 [Example 137, (S)-2-(1,1-Difluoroethyl)-N-(3-(6,6-dimethyl-6a,7,9,10-tetrahydro-6H-[1,4]oxazino[4,3-d]pyridazino[3,4-b][1,4]oxazin-2-yl)-4-methylphenyl)isonicotinamide] | 0.24 |
| Cc1ccc(NC(=O)c2ccnc(C(C)(F)F)c2)cc1-c1ccc2c(c1)N1CCOCC1C(CO)(CO)C2 (racemic) [Example 50, (rac)-N-(3-(5,5-bis(hydroxymethyl)-1,2,4,4a,5,6-hexahydro-[1,4]oxazino[4,3-a]quinolin-9-yl)-4-methylphenyl)-2-(1,1-difluoroethyl)isonicotinamide] | 0.013 |
| Cc1ncc(NC(=O)c2cccc(C(F)(F)F)c2)cc1-c1cnc2c(c1)N1CCOC[C@H]1[C@@H](CO)C2 [Example 490, N-(5-((4aR,5S)-5-(hydroxymethyl)-1,2,4,4a,5,6-hexahydro-[1,4]oxazino[4,3-a][1,5]naphthyridin-9-yl)-6-methylpyridin-3-yl)-3 - (trifluoro-methyl)benzamide] | 0.5 |
| CCN1C[C@@H]2CCOCCN2c2cc(-c3cc(NC(=O)c4cccc(C(F)(F)F)c4)cnc3C)cnc2C1=O [Example 506, (S)-N-(5-(7-ethyl-8-oxo-1,2,4,5,5a,6,7,8-octahydropyrido[2′, 3′:6,7][1,4]diazepino [1,2-d][1,4]oxazepin-11-yl)-6-methylpyridin-3-yl)-3-(trifluorometh-yl)benzamide] | 80.3 |
| Cc1ncc(NC(=O)c2ccnc(C(C)(C)C)c2)cc1-c1ccc2c(c1)N1CCOC[C@H]1[C@](F)(CF)C2 [Example 468, 2-(tert-butyl)-N-(5-((4aS,5S)-5-fluoro-5-(fluoromethyl)-1,2,4,4a,5,6-hexahydro-[1,4]oxazino[4,3-a]quinolin-9-yl)-6-methylpyridin-3-yl)isonicotinamide] | 8 |
| Cc1ccc(NC(=O)c2cc(Cl)nc(C(F)(F)F)c2)cc1-c1ccc2c(c1)N1CCOC[C@H]1[C@](F)(CO)C2 [Example 391, 2-chloro-N-(3-((4aS,5S)-5-fluoro-5-(hydroxymethyl)-1,2,4,4a,5,6-hexahydro-[1,4]oxazino[4,3-a]quinolin-9-yl)-4-methylphenyl)-6-(trifluoromethyl)isonicotinamide] | 6.8 |
| CO[C@@H]1C[C@@H]2COCCN2c2cc(-c3cc(NC(=O)c4ccnc(C(F)(F)F)c4)ccc3C)ccc21 (racemic) [Example 30, (rac)-(trans)-N-(3-(6-methoxy-1,2,4,4a,5,6-hexahydro-[1,4]oxazino[4,3-a]quinolin-9-yl)-4-methylphenyl)-2-(trifluoromethyl)isonicotinamide] | 0.18 |
